The values that follow come from ChEMBL document CHEMBL5537174, “Discovery of Potent SOS1 PROTACs with Effective Antitumor Activities against NCI-H358 Tumor Cells In Vitro/In Vivo” (J Med Chem, 2024).

Data set [1] has as its system NCI-H358. In words: Antiproliferative activity against human NCI-H358 cells assessed as inhibition of cell proliferation incubated for 7 days by celltiter-glo 3D assay. To be noted: NCI-H358, 168 h. It is filed as functional, cell-based.
Data set [2] concerns the target T1, Protein cereblon/Son of sevenless homolog 1 (Homo sapiens, UniProt Q07889+Q96SW2). In words: PROTAC activity at CRBN/SOS1 in human NCI-H358 cells assessed as induction of SOS1 degradation incubated for 6 hrs by Western blotting analysis. To be noted: read-out: DC50. It is filed as cell-based.
Target sequence in this assay (Q07889 whole entry): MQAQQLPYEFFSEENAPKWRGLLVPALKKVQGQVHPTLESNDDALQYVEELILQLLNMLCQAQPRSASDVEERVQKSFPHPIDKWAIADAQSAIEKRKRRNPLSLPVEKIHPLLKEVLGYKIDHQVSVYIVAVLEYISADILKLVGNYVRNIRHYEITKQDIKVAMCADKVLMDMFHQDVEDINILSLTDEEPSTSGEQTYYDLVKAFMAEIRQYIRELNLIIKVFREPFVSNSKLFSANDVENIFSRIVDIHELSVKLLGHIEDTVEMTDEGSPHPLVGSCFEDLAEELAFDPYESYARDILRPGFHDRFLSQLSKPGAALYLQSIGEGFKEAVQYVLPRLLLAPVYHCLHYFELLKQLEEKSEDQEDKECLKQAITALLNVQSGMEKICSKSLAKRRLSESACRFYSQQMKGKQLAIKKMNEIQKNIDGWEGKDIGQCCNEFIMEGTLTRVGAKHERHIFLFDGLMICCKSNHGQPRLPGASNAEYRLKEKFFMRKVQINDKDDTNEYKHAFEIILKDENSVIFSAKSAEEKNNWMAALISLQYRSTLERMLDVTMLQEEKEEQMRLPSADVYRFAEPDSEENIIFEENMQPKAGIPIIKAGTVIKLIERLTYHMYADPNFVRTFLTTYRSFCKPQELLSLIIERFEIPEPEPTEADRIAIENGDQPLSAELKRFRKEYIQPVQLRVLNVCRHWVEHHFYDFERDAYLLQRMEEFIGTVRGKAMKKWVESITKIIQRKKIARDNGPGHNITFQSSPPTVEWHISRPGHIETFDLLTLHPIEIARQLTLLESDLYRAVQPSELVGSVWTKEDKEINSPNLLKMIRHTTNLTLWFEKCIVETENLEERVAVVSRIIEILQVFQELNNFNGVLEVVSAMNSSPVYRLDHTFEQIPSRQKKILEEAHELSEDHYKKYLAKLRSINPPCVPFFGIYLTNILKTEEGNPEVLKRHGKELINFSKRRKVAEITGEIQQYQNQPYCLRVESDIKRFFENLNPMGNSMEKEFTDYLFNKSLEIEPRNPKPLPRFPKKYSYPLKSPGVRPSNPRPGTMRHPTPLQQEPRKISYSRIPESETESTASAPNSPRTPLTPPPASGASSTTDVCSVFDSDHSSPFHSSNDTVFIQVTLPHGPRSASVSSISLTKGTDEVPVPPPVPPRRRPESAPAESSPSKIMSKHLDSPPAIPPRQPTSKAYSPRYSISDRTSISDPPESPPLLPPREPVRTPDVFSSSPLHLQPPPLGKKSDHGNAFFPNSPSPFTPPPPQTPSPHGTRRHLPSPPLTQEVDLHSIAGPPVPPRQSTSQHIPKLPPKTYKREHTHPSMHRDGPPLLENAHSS
Target sequence in this assay (Q96SW2 whole entry): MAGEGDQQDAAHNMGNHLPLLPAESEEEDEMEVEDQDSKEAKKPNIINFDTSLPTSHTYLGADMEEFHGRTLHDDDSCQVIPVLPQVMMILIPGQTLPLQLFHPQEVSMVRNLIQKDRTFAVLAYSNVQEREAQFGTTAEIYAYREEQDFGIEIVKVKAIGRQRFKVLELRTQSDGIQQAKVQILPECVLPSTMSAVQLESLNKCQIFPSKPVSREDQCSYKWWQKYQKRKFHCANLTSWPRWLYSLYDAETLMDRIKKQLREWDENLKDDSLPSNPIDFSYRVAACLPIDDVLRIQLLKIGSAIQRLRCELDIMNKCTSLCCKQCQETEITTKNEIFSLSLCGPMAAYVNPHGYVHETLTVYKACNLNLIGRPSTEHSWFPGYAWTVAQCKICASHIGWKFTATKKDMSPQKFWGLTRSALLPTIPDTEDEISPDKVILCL
Data set [3] concerns NCI-H358. Put plainly: Potency index, ratio of test compound IC50 to BI3406 IC50 for antiproliferative activity against human NCI-H358 cells assessed as inhibition of cell proliferation incubated for 7 days by celltiter-glo 3D assay. In kind it is functional. To be noted: time 7 day.
Data set [4] has as its target T1, Protein cereblon/Son of sevenless homolog 1. In words: PROTAC activity at CRBN/SOS1 in human NCI-H358 cells assessed as induction of SOS1 degradation at 0.1 to 1 uM incubated for 6 hrs by Western blotting analysis. In kind it is cell-based. To be noted: dose 0.1-1 µM.
Target sequence in this assay (Q07889 whole entry, looked up): as the sequence (Q07889 whole entry) above
Target sequence in this assay (Q96SW2 whole entry, looked up): as the sequence (Q96SW2 whole entry) above
Data set [5] has the same target. Put plainly: PROTAC activity at CRBN/SOS1 in human NCI-H358 cells assessed as induction of SOS1 degradation at > 1 uM incubated for 6 hrs by Western blotting analysis. In kind it is cell-based.
Target sequence in this assay (Q07889 whole entry, looked up): as the sequence (Q07889 whole entry) above
Target sequence in this assay (Q96SW2 whole entry, looked up): as the sequence (Q96SW2 whole entry) above
Data set [6] deals with NCI-H358. Put plainly: Antiproliferative activity against human NCI-H358 cells harboring G12C mutant assessed as inhibition of cell proliferation incubated for 7 days by celltiter-glo 3D assay. In kind it is functional, cell-based. To be noted: NCI-H358, 168 h.
Data set [7] in a line: Antiproliferative activity against human GP2d cells harboring G12D mutant assessed as inhibition of cell proliferation incubated for 7 days by celltiter-glo 3D assay. It is filed as functional, cell-based. To be noted: 168 h.
Data set [8] deals with NCI-H441. Put plainly: Antiproliferative activity against human NCI-H441 cells harboring G12V mutant assessed as inhibition of cell proliferation incubated for 7 days by celltiter-glo 3D assay. It is filed as functional, cell-based. To be noted: NCI-H441, 168 h.
Data set [9] concerns DLD-1. In words: Antiproliferative activity against human DLD-1 cells harboring G13D mutant assessed as inhibition of cell proliferation incubated for 7 days by celltiter-glo 3D assay. In kind it is functional, cell-based. To be noted: DLD-1, 168 h.
The nature of data set [10]: Tmax in BALB/c nude mouse at 10 mg/kg, ip measured upto 24 hrs by LC-MS/MS analysis. In kind it is ADME, organism-based. To be noted: in vivo.
Data set [11] in a line: AUC (0 to t) in BALB/c nude mouse at 10 mg/kg, ip measured upto 24 hrs by LC-MS/MS analysis. To be noted: in vivo. It is filed as ADME, organism-based.
A short description of data set [12]: Cmax in BALB/c nude mouse at 10 mg/kg, ip measured upto 24 hrs by LC-MS/MS analysis. In kind it is ADME, organism-based. To be noted: in vivo.
Data set [13] can be described thus: AUC (0 to infinity) in BALB/c nude mouse at 10 mg/kg, ip measured upto 24 hrs by LC-MS/MS analysis. It is filed as ADME, organism-based. To be noted: in vivo.
Data set [14] is described as follows: Half life in BALB/c nude mouse at 10 mg/kg, ip measured upto 24 hrs by LC-MS/MS analysis. It is filed as ADME, organism-based. To be noted: in vivo.
Data set [15] deals with Voltage-gated inwardly rectifying potassium channel KCNH2 (Homo sapiens, UniProt Q12809). In words: Inhibition of hERG at -80 mV holding potential by whole cell patch clamp recording assay. In kind it is toxicity.
Data set [16] deals with Cytochrome P450 3A4 (Homo sapiens, UniProt P08684). In words: Inhibition of CYP3A4 in human liver microsome preincubated with compound for 5 mins followed by NADPH addition and measured after 5 mins by LC-MS/MS analysis. In kind it is ADME, microsomes.
Data set [17] deals with NCI-H358. Put plainly: Antitumor activity against human NCI-H358 cells xenografted in BALB/c nude mouse assessed as tumor growth inhibition at 30 mg/kg, ip measured twice daily for 21 days. In kind it is functional. To be noted: NCI-H358, 504 h, time 21 day, read-out: TGI.
The nature of data set [18]: Toxicity in BALB/c nude mouse xenografted with human NCI-H358 cells assessed as body weight loss at 30 mg/kg, ip measured every 3 days for 21 days. It is filed as organism-based. To be noted: in vivo, 504 h, time 21 day.

SMILES strings stand for the structures. Active and inactive are the calls of the source. No cut-off for these calls is given here.

Chain of Cytochrome P450 3A4 (P08684 whole entry): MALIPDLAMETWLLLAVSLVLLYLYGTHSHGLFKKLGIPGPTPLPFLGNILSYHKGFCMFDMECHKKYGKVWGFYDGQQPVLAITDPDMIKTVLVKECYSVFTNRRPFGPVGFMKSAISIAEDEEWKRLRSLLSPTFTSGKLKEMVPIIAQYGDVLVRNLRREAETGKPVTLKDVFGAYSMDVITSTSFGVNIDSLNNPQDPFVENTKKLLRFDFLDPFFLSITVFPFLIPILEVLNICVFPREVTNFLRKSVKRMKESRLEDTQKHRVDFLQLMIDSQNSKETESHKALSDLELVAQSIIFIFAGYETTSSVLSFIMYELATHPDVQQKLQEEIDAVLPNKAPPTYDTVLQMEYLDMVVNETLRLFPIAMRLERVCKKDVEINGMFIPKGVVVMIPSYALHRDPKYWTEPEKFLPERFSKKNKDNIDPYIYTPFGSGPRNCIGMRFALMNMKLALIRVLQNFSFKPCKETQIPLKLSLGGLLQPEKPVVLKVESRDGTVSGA
Chain of Voltage-gated inwardly rectifying potassium channel KCNH2 (Q12809 whole entry): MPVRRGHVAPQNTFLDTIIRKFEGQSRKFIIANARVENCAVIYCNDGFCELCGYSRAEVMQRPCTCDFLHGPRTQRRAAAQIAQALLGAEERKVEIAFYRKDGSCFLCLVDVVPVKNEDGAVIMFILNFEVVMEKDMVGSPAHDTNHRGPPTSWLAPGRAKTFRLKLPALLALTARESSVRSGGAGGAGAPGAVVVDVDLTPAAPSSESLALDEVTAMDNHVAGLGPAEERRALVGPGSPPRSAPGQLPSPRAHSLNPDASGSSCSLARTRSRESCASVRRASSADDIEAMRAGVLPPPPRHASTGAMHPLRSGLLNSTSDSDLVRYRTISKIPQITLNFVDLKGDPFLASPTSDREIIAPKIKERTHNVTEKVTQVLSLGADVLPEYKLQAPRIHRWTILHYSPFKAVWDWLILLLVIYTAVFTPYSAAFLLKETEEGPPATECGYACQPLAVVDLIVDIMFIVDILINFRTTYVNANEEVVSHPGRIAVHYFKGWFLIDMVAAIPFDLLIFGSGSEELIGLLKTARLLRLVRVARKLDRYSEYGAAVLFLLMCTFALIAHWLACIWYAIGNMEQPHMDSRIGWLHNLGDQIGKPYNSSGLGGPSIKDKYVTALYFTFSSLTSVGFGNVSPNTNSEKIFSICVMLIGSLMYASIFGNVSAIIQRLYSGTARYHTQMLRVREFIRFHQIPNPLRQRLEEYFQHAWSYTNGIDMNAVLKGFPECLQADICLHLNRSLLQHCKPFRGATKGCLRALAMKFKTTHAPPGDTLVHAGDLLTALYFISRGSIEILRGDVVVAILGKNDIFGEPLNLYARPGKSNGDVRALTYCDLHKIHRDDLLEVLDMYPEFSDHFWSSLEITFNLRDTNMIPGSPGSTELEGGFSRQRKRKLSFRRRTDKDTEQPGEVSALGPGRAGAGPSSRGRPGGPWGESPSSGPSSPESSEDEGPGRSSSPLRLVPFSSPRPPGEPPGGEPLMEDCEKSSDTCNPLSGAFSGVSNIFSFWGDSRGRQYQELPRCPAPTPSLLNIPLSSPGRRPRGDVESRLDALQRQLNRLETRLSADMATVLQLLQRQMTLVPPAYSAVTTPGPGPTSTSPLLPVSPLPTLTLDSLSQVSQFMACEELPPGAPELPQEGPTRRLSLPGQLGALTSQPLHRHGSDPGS

With `COc1cc2nc(C)nc(N[C@H](C)c3cc(N)cc(C(F)(F)F)c3)c2cc1OCC1(CN(C)C(=O)CCCCCCNc2cccc3c2C(=O)N(C2CCC(=O)NC2=O)C3=O)CC1` (stereo partly drawn), the IC50 is 5 nM in data set [1]; 5 nM in [6]; 2150 nM in data set [7]; 43 nM in data set [8]; 63 nM in [9]; over 30000 nM in data set [15]. In [16], the IC50 came out at 320 nM. The DC50 in data set [2] is 13 nM. The “Ratio IC50” value in data set [3] amounted to 5. The result in [4] was Active. For the same compound, the outcome in data set [5] was inactive. Moreover, the Tmax in data set [10] came to 1 h. The same compound returned an AUC(0-t) at 24 h in data set [11] of 4370 ng·h/mL. Besides, the Cmax in [12] stood at 1870 ng/mL. The AUC(0-inf) in data set [13] turned out to be 4380 ng·h/mL. The compound further gave a half-life in data set [14] of 4.05 h. In data set [17], the inhibition in vivo at 30 mg/kg amounted to 58.8%. Besides, the Activity entry in [18] was “Non-Toxic”.
